For the test, the target named is interaction between p53 and MDM2 proteins (recombinant GST-tagged MDM2, p53 peptide) (Homo sapiens, UniProt Q00987). Briefly: HTRF assay of inhibition of the p53-MDM2 interaction (GST-MDM2 binding to biotinylated p53 peptide). To be noted: 0.02% BSA. The method, then:
The ability of the compounds to inhibit the interaction between p53 and MDM2 proteins was measured by an HTRF (homogeneous time-resolved fluorescence) assay in which recombinant GST-tagged MDM2 binds to a peptide that resembles the MDM2-interacting region of p53 (Lane et al.). Binding of GST-MDM2 protein and p53-peptide (biotinylated on its N-terminal end) is registered by the FRET (fluorescence resonance energy transfer) between Europium (Eu)-labeled anti-GST antibody and streptavidin-conjugated Allophycocyanin (APC).
Test is performed in black flat-bottom 384-well plates (Costar) in a total volume of 40 uL containing: 90 nM biotinylate peptide, 160 ng/ml GST-MDM2, 20 nM streptavidin-APC (PerkinElmerWallac), 2 nM Eu-labeled anti-GST-antibody (PerkinElmerWallac), 0.2% bovine serum albumin (BSA), 1 mM dithiothreitol (DTT) and 20 mM Tris-borate saline (TBS) buffer as follows: Add 10 uL of GST-MDM2 (640 ng/ml working solution) in reaction buffer to each well. Add 10 uL diluted compounds (1:5 dilution in reaction buffer) to each well, mix by shaking. Add 20 uL biotinylated p53 peptide (180 nM working solution) in reaction buffer to each well and mix on shaker. Incubate at 37° C. for 1 h. Add 20 uL streptavidin-APC and Eu-anti-GST antibody mixture (6 nM Eu-anti-GST and 60 nM streptavidin-APC working solution) in TBS buffer with 0.2% BSA, shake at room temperature for 30 minutes and read using a TRF-capable plate reader at 665 and 615 nm (Victor 5, Perkin ElmerWallac). If not specified, the reagents were purchased from Sigma Chemical Co.
On the technique in general: In TR-FRET formats the signal depends on donor and acceptor labels being close together.

The structures appear in SMILES notation.

Sequence of interaction between p53 and MDM2 proteins (recombinant GST-tagged MDM2, p53 peptide) (Q00987 whole entry): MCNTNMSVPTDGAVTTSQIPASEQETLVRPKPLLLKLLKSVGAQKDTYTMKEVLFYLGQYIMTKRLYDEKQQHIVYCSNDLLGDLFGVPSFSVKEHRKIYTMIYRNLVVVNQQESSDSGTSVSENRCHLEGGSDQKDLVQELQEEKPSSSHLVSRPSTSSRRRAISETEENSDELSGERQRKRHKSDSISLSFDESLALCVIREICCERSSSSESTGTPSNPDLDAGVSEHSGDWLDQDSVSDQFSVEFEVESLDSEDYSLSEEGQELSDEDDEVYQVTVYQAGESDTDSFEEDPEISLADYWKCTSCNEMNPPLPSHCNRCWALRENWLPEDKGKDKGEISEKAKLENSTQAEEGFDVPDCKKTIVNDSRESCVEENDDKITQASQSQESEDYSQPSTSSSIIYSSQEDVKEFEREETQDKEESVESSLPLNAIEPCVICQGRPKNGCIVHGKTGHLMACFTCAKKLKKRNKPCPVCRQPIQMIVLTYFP

A word on the IC50: it is the midpoint of a concentration-inhibition curve. For the compound `O=C1C[C@@H](c2cccc(Cl)c2)[C@]2(C(=O)Nc3cc(Cl)ccc32)[C@@H](c2ccccc2)N1` (racemic) [Example 14b, (2′R,3R,4′S)-6-chloro-4′-(3-chlorophenyl)-2′-phenylspiro[3H-indole-3,3′-piperidine]-2,6′(1H)-dione], the IC50 was determined as 440 nM. On to `C[C@@H]1C(=O)N[C@H](c2cccc(Cl)c2)[C@@]2(C(=O)Nc3cc(Cl)ccc32)[C@@H]1c1cccc(Cl)c1` (racemic) [Example 20, (2′R,3R,4′S,5′S)-6-chloro-2′,4′-bis(3-chlorophenyl)-5′-methylspiro[3H-indole-3,3′-piperidine]-2,6′(1H)-dione], for which the half-inhibitory concentration (IC50) worked out at 1810 nM.

As to `CCN1C(=O)C[C@@H](c2cccc(Cl)c2)[C@]2(C(=O)Nc3cc(Cl)ccc32)[C@H]1c1ccccc1C` (racemic) [Example 26b, (2′R,3R,4′S)-6-chloro-4′-(3-chlorophenyl)-1′-ethyl-2′-(2-methylphenyl)spiro[3H-indole-3,3′-piperidine]-2,6′(1H)-dione], the IC50 was found to be 490 nM.

As to `O=C1C[C@H](C2CCCC2)[C@@]2(C(=O)Nc3cc(Cl)ccc32)[C@H](c2cccc(Cl)c2)N1` (racemic) [Example 5d, (2′S,3S,4′R)-6-chloro-2′-(3-chlorophenyl)-4′-cyclopentylspiro[3H-indole-3,3′-piperidine]-2,6′(1H)-dione], the IC50 amounted to 2430 nM. Next, `Cc1ccccc1[C@H]1N(CC(=O)O)C(=O)C[C@@H](c2cccc(Cl)c2)[C@]12C(=O)Nc1cc(Cl)ccc12` (racemic) [Example 31, (2′R,3R,4′S)-6-chloro-4′-(3-chlorophenyl)-1′-[(hydroxycarbonyl)-methyl]-2′-(2-methylphenyl)spiro[3H-indole-3,3′-piperidine]-2,6′(1H)-dione]: 372 nM.
